According to patent US6723680B2, “Composition for regulation of gametophytic self-incompatibility, control method of gametophytic self-incompatibility of a plant and the plant self-pollinated by using said control method” (Istech Co., Ltd., priority 2000, dated 2004):
Where two headings read alike, the source gives them in different places. Blank lines part the entries; values can stand above or below the compound they belong to.

Legend:
Fuji apple [1] = format: in vivo; conditions: for Fruition rate: siloxane spreader 0.0335%, 4 days before full blooming; for concentration in which harmful effect of a medicine occurred: in vivo
Procedure: To investigate the fruition rate and harmful effect of a medicine according to the concentration of style-specific RNase inhibitors, ZnSO4 and CuSO4, style-specific RNase inhibitors of the present invention, were treated to Fuji apple with various concentration in 4 days before full blooming.
Furthermore, to maximize the efficiency of the style-specific RNase inhibitor of the present invention as fruition control agents, ZnSO4 or CuSO4 was mixed with the spreader of siloxane class (brand name silhouette, Dongbu precision chemical company, Korea) at 0.0335%, and treated to the Fuji apple.

[2] = test system: pollen tube of Fuji apple; assay: Pollen tube elongation of self-pollen in medium with style-specific RNase and inhibitor; format: cell-based; conditions: 10 units S1 RNase in medium
Procedure: To investigate the effect of the style-specific S1 RNase purified in the example 1-4 on pollen tube elongation of self-pollen, experiment was conducted as follows. First of all, only the self-pollen made from a stamen of Fuji apple was isolated. The isolated pollen was cultured in the medium for pollen tube elongation, which was added with 0, 2, 4 and 6 units (mg^−1min^−1ml) of S1 RNase purified in the example 1-4, respectively, in a dark condition for 24 hours at 28° C. The medium for pollen tube elongation is composed of 20 mM Mes-KOH (pH 6.0), 0.07% Ca(NO3)2·4H2O, 0.02% MgSO4·7H2O, 0.01% KNO3, 0.01% H3BO3 and 2% sucrose, and elongates pollen tube artificially.
10 units (mg^−1min^−1ml^−1) of the style-specific S1 RNase was added to the medium for pollen tube elongation, and ZnSO4 and CuSO4 were added thereto at 1 mM, 2 mM and 5 mM respectively. And then, pollen tube was cultured according to the same method as the Example 2.

wild-type tomato [3] = format: in vivo; conditions: for Fruition rate: siloxane spreader 0.0335%, 4 days before full blooming; for concentration in which harmful effect of a medicine occurred: in vivo
Procedure: To investigate the fruition rate and harmful effects of a medicine according to the concentration of style-specific RNase inhibitors, ZnSO4 and CuSO4, style-specific RNase inhibitors of the present invention, were treated to wild-type tomato with various concentration in 4 days before full blooming.
Furthermore, to maximize the efficiency of the style-specific RNase inhibitor of the present invention as fruition control agents, ZnSO4 or CuSO4 was mixed with spreader of hexaconazole, siloxane and alkylaryl polyethoxylate class according to most appropriate usage amount by the manufacturer, and treated.
A composition mixed with the spreader of siloxane class (brand name:silhouette, Dongbu precision chemical company, Korea) to 0.0335% was prepared and the composition was treated to wild-type tomato.

Fuji apple [4] = assay: Fruition rate of Fuji apple according to blooming period of treatment; format: in vivo; conditions: 1 mM with siloxane spreader 0.0335%
Procedure: To test the effect of a style-specific RNase inhibitor of the present invention in a practical cultivating environment, the style-specific RNase of the present invention was treated to Fuji apple that was cultivated in a greenhouse for research (located in Cheongsong-gun, Kyungsangpukdo, Republic of Korea). In the present invention, the experiment was performed under the environmental condition that can keep the Fuji apple, a representative plant having gametophytic self-incompatibility, a single species genetically. To determine the treatment period of a style-specific RNase inhibitor, the inhibitor was treated at the early blooming period (budding formation period˜prior to full blooming), the middle blooming period (full blooming) and the late blooming period (1 day after full blooming˜falling period of petal) respectively. A composition, which was manufactured by mixing the spreader of siloxane class (brand name: silhouette, Dongbu precision chemical company, Korea) with the inhibitor to the concentration of 0.0335%, was treated under the same condition of the Example 5-1, and the results were shown in Table 5.

wild-type tomato [5] = assay: Fruition rate of wild-type tomato according to blooming period of treatment; format: in vivo; conditions: 1 mM
Procedure: To test the effect of a style-specific RNase inhibitor in a practical cultivating environment, the style-specific RNase of the present invention was treated to the wild-type tomato that was cultivated in a greenhouse for research (located in Taegu Catholic University, Kyungsan city, Kyungsangpukdo, Republic of korea). In the present invention, the experiment was performed under the environmental condition that can keep the wild-type tomato, a representative plant having gametophytic self-incompatibility, a single species genetically.
To determine the treatment period of a style-specific RNase inhibitor, the inhibitor was treated at the early blooming period (budding formation period˜prior to fill blooming), the middle blooming period (full blooming) and the late blooming period (1 day after full blooming˜falling period of petal) respectively. The inhibitors, ZnSO4 and CuSO4 were then added with 1 mM (about 288 ppm) and 1 mM (about 250 ppm) respectively at 9˜11 a.m., when pollination of plant occurs most actively. Fruition rate was investigated, and the results of 4 times repeated experiments for 25 blooming periods (reproductive organ containing a stamen, a stigma, a petal, etc.) in each experiment were shown in Table 3 with the statistic value.

concentration in which harmful effect of a medicine occurred (Fuji apple [1]): ≥ 800 ppm | elongation of pollen tube ([2]; 1 mM inhibitor): elongated again | concentration in which harmful effect of a medicine occurred (wild-type tomato [3]): ≥ 800 ppm
Compound: O=S(=O)([O-])[O-].[Cu+2] [CuSO4]
Fruition rate (Fuji apple [1]; 20 ppm): 0% | Fruition rate (Fuji apple [1]; 40 ppm): 0% | Fruition rate (Fuji apple [1]; 60 ppm): 11% | Fruition rate (Fuji apple [1]; 80 ppm): 39% | Fruition rate (Fuji apple [1]; 100 ppm): 70% | Fruition rate (Fuji apple [1]; 200 ppm): 76% | Fruition rate (Fuji apple [1]; 300 ppm): 88% | Fruition rate (Fuji apple [1]; 400 ppm): 85% | Fruition rate (Fuji apple [1]; 500 ppm): 77% | Fruition rate (Fuji apple [1]; 600 ppm): 73% | Fruition rate (Fuji apple [1]; 700 ppm): 73% | Fruition rate (Fuji apple [1]; 800 ppm): 52% | Fruition rate (Fuji apple [1]; 900 ppm): 31% | Fruition rate (Fuji apple [1]; 1000 ppm): 21% | Fruition rate (Fuji apple [1]; 1100 ppm): 11% | Fruition rate (Fuji apple [1]; 1200 ppm): 0% | Fruition rate (Fuji apple [1]; 1300 ppm): 0% | Fruition rate (Fuji apple [1]; 1400 ppm): 0% | Fruition rate (Fuji apple [1]; 1500 ppm): 0% | Fruition rate (wild-type tomato [3]; 20 ppm): 0% | Fruition rate (wild-type tomato [3]; 40 ppm): 15% | Fruition rate (wild-type tomato [3]; 60 ppm): 41% | Fruition rate (wild-type tomato [3]; 80 ppm): 59% | Fruition rate (wild-type tomato [3]; 100 ppm): 97% | Fruition rate (wild-type tomato [3]; 200 ppm): 92% | Fruition rate (wild-type tomato [3]; 300 ppm): 88% | Fruition rate (wild-type tomato [3]; 400 ppm): 85% | Fruition rate (wild-type tomato [3]; 500 ppm): 77% | Fruition rate (wild-type tomato [3]; 600 ppm): 73% | Fruition rate (wild-type tomato [3]; 700 ppm): 73% | Fruition rate (wild-type tomato [3]; 800 ppm): 44% | Fruition rate (wild-type tomato [3]; 900 ppm): 16% | Fruition rate (wild-type tomato [3]; 1000 ppm): 7% | Fruition rate (wild-type tomato [3]; 1100 ppm): 0% | Fruition rate (wild-type tomato [3]; 1200 ppm): 0% | Fruition rate (wild-type tomato [3]; 1300 ppm): 0% | Fruition rate (wild-type tomato [3]; 1400 ppm): 0% | Fruition rate (wild-type tomato [3]; 1500 ppm): 0% | Fruition rate (Fuji apple [4]; 1 day after full blooming): 0 | Fruition rate (Fuji apple [4]; 1 day before blooming): 0 | Fruition rate (Fuji apple [4]; 2 days after full blooming): 0 | Fruition rate (Fuji apple [4]; 2 days before blooming): >24% | Fruition rate (Fuji apple [4]; 3 days before blooming): >70% | Fruition rate (Fuji apple [4]; 4 days before blooming): >86% | Fruition rate (Fuji apple [4]; 5 days before blooming): >91% | Fruition rate (Fuji apple [4]; full blooming): 0 | Fruition rate (wild-type tomato [5]; 1 day after full blooming): 0 | Fruition rate (wild-type tomato [5]; 1 day before blooming): 0 | Fruition rate (wild-type tomato [5]; 2 days after full blooming): 0 | Fruition rate (wild-type tomato [5]; 2 days before blooming): 0 | Fruition rate (wild-type tomato [5]; 3 days before blooming): >37% | Fruition rate (wild-type tomato [5]; 4 days before blooming): >74% | Fruition rate (wild-type tomato [5]; 5 days before blooming): >86% | Fruition rate (wild-type tomato [5]; 6 days before blooming): >91% | Fruition rate (wild-type tomato [5]; 7 days before blooming): >91% | Fruition rate (wild-type tomato [5]; full blooming): 0

concentration in which harmful effect of a medicine occurred (Fuji apple [1]): ≥ 900 ppm | elongation of pollen tube ([2]; 1 mM inhibitor): elongated again | elongation of pollen tube ([2]; 2 mM inhibitor): elongated again | concentration in which harmful effect of a medicine occurred (wild-type tomato [3]): ≥ 900 ppm
Compound: O=S(=O)([O-])[O-].[Zn+2] [ZnSO4]
Fruition rate (Fuji apple [1]; 20 ppm): 0% | Fruition rate (Fuji apple [1]; 40 ppm): 5% | Fruition rate (Fuji apple [1]; 60 ppm): 17% | Fruition rate (Fuji apple [1]; 80 ppm): 36% | Fruition rate (Fuji apple [1]; 100 ppm): 72% | Fruition rate (Fuji apple [1]; 200 ppm): 79% | Fruition rate (Fuji apple [1]; 300 ppm): 93% | Fruition rate (Fuji apple [1]; 400 ppm): 88% | Fruition rate (Fuji apple [1]; 500 ppm): 85% | Fruition rate (Fuji apple [1]; 600 ppm): 84% | Fruition rate (Fuji apple [1]; 700 ppm): 74% | Fruition rate (Fuji apple [1]; 800 ppm): 70% | Fruition rate (Fuji apple [1]; 900 ppm): 44% | Fruition rate (Fuji apple [1]; 1000 ppm): 27% | Fruition rate (Fuji apple [1]; 1100 ppm): 9% | Fruition rate (Fuji apple [1]; 1200 ppm): 0% | Fruition rate (Fuji apple [1]; 1300 ppm): 0% | Fruition rate (Fuji apple [1]; 1400 ppm): 0% | Fruition rate (Fuji apple [1]; 1500 ppm): 0% | Fruition rate (wild-type tomato [3]; 20 ppm): 0% | Fruition rate (wild-type tomato [3]; 40 ppm): 13% | Fruition rate (wild-type tomato [3]; 60 ppm): 31% | Fruition rate (wild-type tomato [3]; 80 ppm): 61% | Fruition rate (wild-type tomato [3]; 100 ppm): 99% | Fruition rate (wild-type tomato [3]; 200 ppm): 98% | Fruition rate (wild-type tomato [3]; 300 ppm): 93% | Fruition rate (wild-type tomato [3]; 400 ppm): 88% | Fruition rate (wild-type tomato [3]; 500 ppm): 85% | Fruition rate (wild-type tomato [3]; 600 ppm): 84% | Fruition rate (wild-type tomato [3]; 700 ppm): 74% | Fruition rate (wild-type tomato [3]; 800 ppm): 71% | Fruition rate (wild-type tomato [3]; 900 ppm): 62% | Fruition rate (wild-type tomato [3]; 1000 ppm): 0% | Fruition rate (wild-type tomato [3]; 1100 ppm): 0% | Fruition rate (wild-type tomato [3]; 1200 ppm): 0% | Fruition rate (wild-type tomato [3]; 1300 ppm): 0% | Fruition rate (wild-type tomato [3]; 1400 ppm): 0% | Fruition rate (wild-type tomato [3]; 1500 ppm): 0% | Fruition rate (Fuji apple [4]; 1 day after full blooming): 0 | Fruition rate (Fuji apple [4]; 1 day before blooming): 0 | Fruition rate (Fuji apple [4]; 2 days after full blooming): 0 | Fruition rate (Fuji apple [4]; 2 days before blooming): >32% | Fruition rate (Fuji apple [4]; 3 days before blooming): >71% | Fruition rate (Fuji apple [4]; 4 days before blooming): >93% | Fruition rate (Fuji apple [4]; 5 days before blooming): >92% | Fruition rate (Fuji apple [4]; full blooming): 0 | Fruition rate (wild-type tomato [5]; 1 day after full blooming): 0 | Fruition rate (wild-type tomato [5]; 1 day before blooming): 0 | Fruition rate (wild-type tomato [5]; 2 days after full blooming): 0 | Fruition rate (wild-type tomato [5]; 2 days before blooming): 0 | Fruition rate (wild-type tomato [5]; 3 days before blooming): >30% | Fruition rate (wild-type tomato [5]; 4 days before blooming): >71% | Fruition rate (wild-type tomato [5]; 5 days before blooming): >83% | Fruition rate (wild-type tomato [5]; 6 days before blooming): >90% | Fruition rate (wild-type tomato [5]; 7 days before blooming): >92% | Fruition rate (wild-type tomato [5]; full blooming): 0
